# Test results published in patent US10208089B2, “Modulation of complement activity” (priority 2014, dated 2019).
# Starred links: 1 amine or outer side, 2 acyl side, 3 side chain; linkers in the order of their positions; H or OH if unused. Positions of bridges follow the written chain, without caps; N, C: chain ends. Non-standard residues stand in square brackets, D forms with d. Residues, ends and D or L forms follow the SMILES beside them. Trp(7-aza) = N[C@@H](Cc1c[nH]c2ncccc12)C(=O)O; Trp(1-Me) = Cn1cc(C[C@H](N)C(=O)O)c2ccccc21; mXylylene = c1cc(C[*:1])cc(C[*:2])c1; Phg = N[C@H](C(=O)O)c1ccccc1; Tle = CC(C)(C)[C@H](N)C(=O)O; NMeS = CN[C@@H](CO)C(=O)O; Nle = CCCC[C@H](N)C(=O)O; Nva = CCC[C@H](N)C(=O)O
# Target: C5 (Homo sapiens, UniProt P01031)
# Sequence (P01031 19-1676): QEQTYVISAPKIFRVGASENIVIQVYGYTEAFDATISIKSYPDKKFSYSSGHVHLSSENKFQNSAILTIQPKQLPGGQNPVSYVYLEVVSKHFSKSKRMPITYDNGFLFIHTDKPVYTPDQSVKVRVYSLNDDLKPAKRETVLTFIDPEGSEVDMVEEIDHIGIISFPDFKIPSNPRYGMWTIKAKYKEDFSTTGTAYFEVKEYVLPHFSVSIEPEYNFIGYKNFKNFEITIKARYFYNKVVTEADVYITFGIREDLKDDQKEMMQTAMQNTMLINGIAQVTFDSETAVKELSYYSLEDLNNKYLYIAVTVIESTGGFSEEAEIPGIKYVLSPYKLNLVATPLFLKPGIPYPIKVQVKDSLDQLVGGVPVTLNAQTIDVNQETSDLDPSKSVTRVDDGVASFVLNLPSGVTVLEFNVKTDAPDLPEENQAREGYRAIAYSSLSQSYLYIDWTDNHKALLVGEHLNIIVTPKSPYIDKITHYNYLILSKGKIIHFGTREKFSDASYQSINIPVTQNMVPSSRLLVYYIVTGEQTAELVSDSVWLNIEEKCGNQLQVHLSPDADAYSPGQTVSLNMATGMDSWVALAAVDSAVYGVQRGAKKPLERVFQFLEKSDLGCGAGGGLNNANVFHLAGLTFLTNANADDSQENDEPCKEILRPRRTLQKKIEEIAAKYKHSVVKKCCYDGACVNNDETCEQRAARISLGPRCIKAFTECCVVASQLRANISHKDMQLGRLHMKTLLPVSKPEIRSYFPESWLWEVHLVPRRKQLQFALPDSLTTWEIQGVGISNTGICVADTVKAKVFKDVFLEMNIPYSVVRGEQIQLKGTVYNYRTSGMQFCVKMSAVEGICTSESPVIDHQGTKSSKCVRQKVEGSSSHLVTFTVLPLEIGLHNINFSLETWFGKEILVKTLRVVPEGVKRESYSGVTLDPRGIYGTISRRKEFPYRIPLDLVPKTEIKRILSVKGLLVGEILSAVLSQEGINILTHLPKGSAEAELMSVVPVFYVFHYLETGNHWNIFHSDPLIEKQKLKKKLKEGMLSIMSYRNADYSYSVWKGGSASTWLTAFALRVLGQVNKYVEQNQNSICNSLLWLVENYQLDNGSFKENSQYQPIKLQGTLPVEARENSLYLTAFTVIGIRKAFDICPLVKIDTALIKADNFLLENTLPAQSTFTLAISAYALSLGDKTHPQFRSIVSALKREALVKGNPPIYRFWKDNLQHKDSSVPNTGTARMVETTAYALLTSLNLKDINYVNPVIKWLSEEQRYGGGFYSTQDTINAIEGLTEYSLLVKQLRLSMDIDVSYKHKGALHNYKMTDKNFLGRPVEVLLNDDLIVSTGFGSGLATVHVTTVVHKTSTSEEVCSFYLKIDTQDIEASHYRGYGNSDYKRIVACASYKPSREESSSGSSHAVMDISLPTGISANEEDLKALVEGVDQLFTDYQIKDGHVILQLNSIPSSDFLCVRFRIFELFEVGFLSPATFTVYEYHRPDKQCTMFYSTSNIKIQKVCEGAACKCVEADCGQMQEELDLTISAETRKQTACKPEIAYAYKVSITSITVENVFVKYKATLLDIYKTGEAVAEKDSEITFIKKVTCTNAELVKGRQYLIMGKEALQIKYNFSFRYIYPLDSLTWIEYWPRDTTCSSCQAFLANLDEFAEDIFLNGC
# Test: Human hemolysis assay (RBC lysis assay using complete human sera)
# Format: cell-based
# Design: with complete human sera (Complement Technology, Tyler Tex.) and polypeptides; tissue Complement Technology, Tyler Tex; host or cells: complete human serum
# Details: for ability to inhibit red blood cell lysis compared with the parent polypeptide (in words): variants of R3021, R3002 or R3008
# [1] = inhibition of lysis of antibody-sensitized sheep erythrocytes, complete human sera
# [2] = 7-azatryptophan variant polypeptides of R3002, inhibition of red blood cell lysis
# [3] = variants of R3021 with internal amino acid deletions, inhibition of red blood cell lysis
SMILES,IC50 [1],other results
"CCC[C@H](NC(=O)[C@@H]1CSCc2cccc(c2)CSC[C@H](NC(=O)[C@H](CCC)NC(C)=O)C(=O)N[C@@H](c2ccccc2)C(=O)N[C@@H]([C@@H](C)O)C(=O)N[C@@H](Cc2cn(C)c3ccccc23)C(=O)N[C@@H](CCC(=O)O)C(=O)N[C@@H](Cc2ccc(O)cc2)C(=O)N(C)[C@@H](CO)C(=O)N[C@@H](C)C(=O)N1)C(N)=O [Compound R3109, [mXylyl(2,10)]Ac-Nvl-C-Phg-T-(1-Me-W)-E-Y-(N-Me)S-A-C-Nvl-NH2] (Ac-[Nva]C[Phg]T[Trp(1-Me)]EY[NMeS]AC[Nva]-NH2; linker 2-10 via mXylylene)",> 100 µM,"IC50 (7-azatryptophan variant polypeptides of R3008, inhibition of red blood cell lysis): > 100 µM"
"CCC[C@H](NC(=O)[C@@H](NC(=O)[C@@H]1CCCN1C(=O)[C@H](Cc1ccc(O)cc1)NC(=O)[C@H](CCC(=O)O)NC(=O)[C@H](Cc1cn(C)c2ccccc12)NC(=O)[C@H](Cc1ccc(O)cc1)NC(=O)[C@@H](NC(=O)[C@H](CC(N)=O)NC(=O)[C@H](CCC(=O)O)NC(=O)[C@H](Cc1ccc(O)cc1)NC(C)=O)C(C)(C)C)c1ccccc1)C(N)=O [Compound R3110, Ac-Y-E-N-Tbg-Y-(1-Me)W-E-Y-P-Phg-Nvl-NH2]",2.94 µM,
"CCC[C@H](NC(=O)[C@@H]1CSCc2cccc(c2)CSC[C@H](NC(=O)[C@@H](NC(=O)[C@@H](NC(=O)[C@H](CCC)NC(C)=O)[C@@H](C)O)c2ccccc2)C(=O)N[C@@H](Cc2c[nH]c3ncccc23)C(=O)N[C@@H](CCC(=O)O)C(=O)N[C@@H](Cc2ccc(O)cc2)C(=O)N(C)[C@@H](CO)C(=O)N[C@@H](C)C(=O)N1)C(N)=O [Compound R3111, [mXylyl(4,10)]Ac-Nvl-T-Phg-C-azaTrp-E-Y-(N-Me)S-A-C-Nvl-NH2] (Ac-[Nva]T[Phg]C[Trp(7-aza)]EY[NMeS]AC[Nva]-NH2; linker 4-10 via mXylylene)",> 5 µM,
"CCCC[C@H](NC(C)=O)C(=O)N[C@H]1CSCc2cccc(c2)CSC[C@@H](C(=O)N[C@@H](CCC)C(N)=O)NC(=O)[C@H](Cc2c[nH]cn2)NC(=O)[C@H](CO)N(C)C(=O)[C@H](Cc2ccc(O)cc2)NC(=O)[C@H](CCC(=O)O)NC(=O)[C@H](Cc2c[nH]c3ncccc23)NC(=O)[C@H]([C@@H](C)O)NC(=O)[C@H](c2ccccc2)NC1=O [Compound R3112, [mXyly1(2,10)]Ac-Nle-C-Phg-T-azaTrp-E-Y-(N-Me)S-H-C-Nvl-NH2] (Ac-[Nle]C[Phg]T[Trp(7-aza)]EY[NMeS]HC[Nva]-NH2; linker 2-10 via mXylylene)",> 5 µM,
"CCC[C@H](NC(=O)[C@@H]1CSCc2cccc(c2)CSC[C@H](NC(=O)[C@H](CCC)NC(=O)[C@H](Cc2ccc(O)cc2)NC(C)=O)C(=O)N[C@@H](c2ccccc2)C(=O)N[C@@H]([C@@H](C)O)C(=O)N[C@@H](Cc2c[nH]c3ncccc23)C(=O)N[C@@H](CCC(=O)O)C(=O)N[C@@H](Cc2ccc(O)cc2)C(=O)N(C)[C@@H](CO)C(=O)N[C@@H](Cc2c[nH]cn2)C(=O)N1)C(N)=O [Compound R3113, [mXylyl(3,11)]Ac-Y-Nvl-C-Phg-T-azaTrp-E-Y-(N-Me)S-H-C-Nvl-NH2] (Ac-Y[Nva]C[Phg]T[Trp(7-aza)]EY[NMeS]HC[Nva]-NH2; linker 3-11 via mXylylene)",> 5 µM,
"CCC[C@H](NC(=O)[C@@H](NC(=O)[C@@H]1CCCN1C(=O)[C@H](Cc1ccc(O)cc1)NC(=O)[C@H](CCC(=O)O)NC(=O)[C@@H](Cc1c[nH]c2ccccc12)NC(=O)[C@H](Cc1ccc(O)cc1)NC(=O)[C@@H](NC(=O)[C@H](CC(N)=O)NC(=O)[C@H](CCC(=O)O)NC(=O)[C@H](Cc1ccc(O)cc1)NC(C)=O)C(C)(C)C)c1ccccc1)C(N)=O [Compound R3118, Ac-Y-E-N-Tbg-Y-(D-Trp)-E-Y-P-Phg-Nvl-NH2]",> 100 µM,IC50 [2]: > 100 µM
"CCC[C@H](NC(=O)[C@@H](NC(=O)[C@@H]1CCCN1C(=O)[C@H](Cc1ccc(O)cc1)NC(=O)[C@H](CCC(=O)O)NC(=O)[C@@H](Cc1c[nH]c2ccccc12)NC(=O)[C@H](Cc1ccc(O)cc1)NC(=O)[C@H](CC(N)=O)NC(=O)[C@H](CCC(=O)O)NC(=O)[C@H](Cc1ccc(O)cc1)NC(C)=O)c1ccccc1)C(N)=O [Compound R3119, Ac-Y-E-N-Y-(D-Trp)-E-Y-P-Phg-Nvl-NH2] (Ac-YENY[dW]EYP[Phg][Nva]-NH2)",> 100 µM,IC50 [2]: > 100 µM
"CC(=O)N[C@H]1CSCc2cccc(c2)CSC[C@@H](C(=O)N[C@H](C(=O)N[C@@H](Cc2ccc(O)cc2)C(=O)N[C@@H](Cc2c[nH]c3ccccc23)C(=O)N[C@@H](CCC(=O)O)C(=O)N[C@@H](Cc2ccccc2)C(N)=O)C(C)C)NC(=O)[C@H](Cc2ccccc2)NC(=O)[C@H](CCCNC(=N)N)NC(=O)[C@H](CCC(=O)O)NC(=O)[C@H](C(C)C)NC1=O [Compound R3124, [mXylyl(1,6)]Ac-C-V-E-R-F-C-V-Y-W-E-F-NH2] (Ac-CVERFCVYWEF-NH2; linker 1-6 via mXylylene)",> 100 µM,ability to inhibit red blood cell lysis compared with the parent polypeptide (in words): decrease in the ability; IC50 [3]: > 100 µM
"CC(=O)N[C@H]1CSCc2cccc(c2)CSC[C@@H](C(=O)N[C@@H](Cc2c[nH]c3ccccc23)C(=O)N[C@@H](CCC(=O)O)C(=O)N[C@@H](Cc2ccccc2)C(N)=O)NC(=O)[C@H](Cc2ccccc2)NC(=O)[C@H](CCCNC(=N)N)NC(=O)[C@H](CCC(=O)O)NC(=O)[C@H](C(C)C)NC1=O [Compound R3125, [mXylyl(1,6)]Ac-C-V-E-R-F-C-W-E-F-NH2] (Ac-CVERFCWEF-NH2; linker 1-6 via mXylylene)",> 100 µM,ability to inhibit red blood cell lysis compared with the parent polypeptide (in words): decrease in the ability; IC50 [3]: > 100 µM
"CCC[C@H](NC(C)=O)C(=O)N[C@@H](CS)C(=O)N[C@@H](Cc1ccc(O)cc1)C(=O)N[C@@H](CC(N)=O)C(=O)N[C@@H](CC(N)=O)C(=O)N[C@H](C(=O)N[C@@H](CCC(=O)O)C(=O)N[C@@H](Cc1c[nH]c2ncccc12)C(=O)N[C@@H](CCC(=O)O)C(=O)N[C@@H](CS)C(=O)N1CCC[C@H]1C(=O)N[C@H](C(=O)N[C@H](C(N)=O)C(C)(C)C)c1ccccc1)C(C)(C)C [Compound R3126, Ac-Nvl-C-Y-N-N-Tbg-E-azaTrp-E-C-P-Phg-Tbg-NH2] (Ac-[Nva]CYNN[Tle]E[Trp(7-aza)]ECP[Phg][Tle]-NH2)",> 3 µM,
"CCC[C@H](NC(C)=O)C(=O)N[C@H]1CSCc2cccc(c2)CSC[C@@H](C(=O)N2CCC[C@H]2C(=O)N[C@H](C(=O)N[C@H](C(N)=O)C(C)(C)C)c2ccccc2)NC(=O)[C@H](CCC(=O)O)NC(=O)[C@H](Cc2c[nH]c3ncccc23)NC(=O)[C@H](CCC(=O)O)NC(=O)[C@H](C(C)(C)C)NC(=O)[C@H](CC(N)=O)NC(=O)[C@H](CC(N)=O)NC(=O)[C@H](Cc2ccc(O)cc2)NC1=O [Compound R3127, [mXylyl(2,10)]Ac-Nvl-C-Y-N-N-Tbg-E-azaTrp-E-C-P-Pha-Tbg-NH2] (Ac-[Nva]CYNN[Tle]E[Trp(7-aza)]ECP[Phg][Tle]-NH2; linker 2-10 via mXylylene)",> 75 µM,
"CCC[C@H](NC(C)=O)C(=O)N[C@@H](CS)C(=O)N[C@@H](Cc1ccc(O)cc1)C(=O)N[C@@H](CC(N)=O)C(=O)N[C@@H](CC(N)=O)C(=O)N[C@H](C(=O)N[C@@H](CCC(=O)O)C(=O)N[C@@H](CS)C(=O)N[C@@H](CCC(=O)O)C(=O)N[C@@H](Cc1ccc(O)cc1)C(=O)N1CCC[C@H]1C(=O)N[C@H](C(=O)N[C@H](C(N)=O)C(C)(C)C)c1ccccc1)C(C)(C)C [Compound R3128, Ac-Nvl-C-Y-N-N-Tbg-E-C-E-Y-P-Phg-Tbg-NH2] (Ac-[Nva]CYNN[Tle]ECEYP[Phg][Tle]-NH2)",> 100 µM,IC50 [2]: > 100 µM
